Data reported in US12673930B2, “Thiophene HSD17B13 inhibitors and uses thereof” (INIPHARM, INC., priority 2020, dated 2026).

Experiments:
[1] = target: T1, HSD17B13 enzyme (Homo sapiens, UniProt Q7Z5P4); assay: LC/MS estrone detection assay (conversion of estradiol to estrone by HSD17B13); type: biochemical; settings: substrate 4 μM estradiol, 6 mM NAD+, 30 nM HSD17B13 enzyme, 2 hours at 26.5° C
T1 construct: His; made in house; host or cells: E. coli
T1 sequence (Q7Z5P4 20-300): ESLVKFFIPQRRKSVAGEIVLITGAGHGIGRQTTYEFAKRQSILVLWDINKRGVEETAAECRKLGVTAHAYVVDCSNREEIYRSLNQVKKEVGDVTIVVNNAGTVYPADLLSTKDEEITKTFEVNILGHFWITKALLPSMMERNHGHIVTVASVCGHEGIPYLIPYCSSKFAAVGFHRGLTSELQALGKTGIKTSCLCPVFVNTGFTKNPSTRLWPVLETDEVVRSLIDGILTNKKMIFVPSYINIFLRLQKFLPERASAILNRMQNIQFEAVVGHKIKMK
Description: The liquid chromatography/mass spectrometry (LC/MS) estrone detection assay monitors the conversion of estradiol to estrone by HSD17B13. This assay was performed in a 96 wp format (Eppendorf deep well Plate 96/500) in an 80 μl reaction volume containing: 4 μM estradiol (E2; Cayman; Ser. No. 10/006,315); 6 mM NAD^+ (Sigma; #N0623), and 30 nM HSD17B13 enzyme (in-house; E. coli expressed His-tagged, purified, soluble protein), in a buffer containing 1M potassium phosphate buffer pH 7.4 and 0.5% vehicle (DMSO). Reactions were incubated for 2 hours at 26.5° C., and estradiol (E2) conversion to estrone (E1) was quantitated by LC-MS/MS based analyte detection for E1 using LCMS grade reagents. Reactions were terminated by the addition of two volumes of acetonitrile (MeCN; LCMS grade; CAS #75/05/8) containing deuterated (D4)-E1 as internal standard (Clear Synth; #CS-T-54273; 500 ng/mL final concentration). Samples were applied to pre-prepared Bond Elut-C18 extraction cartridges (3 mL; Agilent; Ser. No. 12/102,028), and washed and eluted in MeCN. Eluates were dried under nitrogen and re-suspended in 60% methanol (LCMS grade methanol; CAS #67/56/1) before submission for analysis. Standard curves for E1 were included for quantification. Analysis of samples was undertaken on a XBridge BEH C18 column (Waters; #186003033) using 0.1% Diethyl Amine in MeCN (mobile phase A; DEA CAS #109-89-7) and 0.1% Diethyl Amine in milli-Q water (mobile phase B) in a 3 min gradient up to 25% B. Analytes were detected in negative mode using MRM analysis, with E2 having a RT of 1.85 min and E1 having a RT of 2 min. Activity of the enzyme in the absence of NAD^+, was subtracted from samples to yield values for specific enzyme activity. Enzyme activity in the presence of test samples was expressed as a percentage of the uninhibited enzyme activity, and plotted versus inhibitor concentration. Non-linear regression was performed using the Morrison equation (see below) for tight binding inhibitors on GraphPad Prism software (GraphPad Software, La Jolla, Calif.). All assessments were undertaken in duplicate evaluations which were pooled during the extraction process and subsequently injected as duplicates for LC-MS/MS analysis. Y=Vo*(1−((((Et+X+Q)−(((Et+X+Q)^2)−4*Et*X)^0.5))/(2*Et))) Morrison equation:
Y=Activity in the presence of inhibitor; Vo=Activity in absence of inhibitor; Et=Total enzyme concentration; X=inhibitor concentration; and Q=(Ki*(1+(S/Km))), where Ki is the inhibition constant, Km is the Michaelis constant, and S is the substrate concentration.

[2] = target: T1, HSD17B13 enzyme; assay: NADH detection assay (fluorescence based Leukotriene B3 (LTB3) assay) for HSD17B13 activity; type: biochemical; settings: substrate 25 μM LTB3, 3 mM NAD+, 125 nM HSD17B13 enzyme, 1 hour at 26.5° C
Description: The fluorescence based Leukotriene B3 (LTB3) assay monitors the fluorescence of NADH, which is generated from NAD+ during the dehydrogenation of the substrate LTB3. The reactions were performed in a 384-well plates (Greiner; #655076) in a 20 μl reaction volume containing the following reagents (final concentrations): 25 μM LTB3 (Cayman; #20109); 3 mM NAD^+ (Sigma; #N0623); 125 nM HSD17B13 enzyme (in-house; E. coli expressed His-tagged, purified, soluble protein); 1 M potassium phosphate buffer, pH 7.4; and 1% DMSO. Reactions were initiated by co-addition of NAD+ and enzyme, and monitored for 1 hour at 26.5° C. Generation of NADH was measured as the fluorescence signal (Excitation at 340 nm and Emission at 445 nm) at 1 hour minus the baseline fluorescence at t=0. Fluorescence signals in the absence of LTB3 (negative control values), were subtracted from all values so that the results reflected substrate-dependent production of NADH. NADH standards were included to allow the conversion of relative fluorescence units into rates of enzyme activity. Enzyme activity in the presence of test compounds was expressed as a percentage of the uninhibited enzyme activity, and plotted versus inhibitor concentration. Non-linear regression was performed using a four-parameter logistic model and Microsoft Excel Solver® software. Ten concentrations of inhibitor were tested in duplicate (in the range of 30 μM-2.5 nM). Two independent concentration response assays were performed and the geometric mean is reported, =/−the SEM.

| SMILES | IC50 [1] [µM] | IC50 [2] [µM] |
| --- | --- | --- |
| COc1ccccc1CCNC(=O)c1sccc1NC(=O)c1ccc2[nH]nc(Cl)c2c1 [Example 28, 3-chloro-N-(2-((2-methoxyphenethyl)carbamoyl)thiophen-3-yl)-1H-indazole-5-carboxamide] | > 10 | > 10 |
| COc1ccccc1CCNC(=O)c1sccc1NC(=O)c1ccncc1 [Example 10, N-(2-((2-methoxyphenethyl)carbamoyl)thiophen-3-yl)isonicotinamide] | > 10 | > 10 |
| COc1ccccc1CCNC(=O)c1sccc1NC(=O)c1ccc(S(=O)(=O)NC(=O)c2ccccc2)c(Cl)c1 [Example 24, 3-(4-(N-benzoylsulfamoyl)-3-chlorobenzamido)-N-(2-methoxyphenethyl)thiophene-2-carboxamide] | 1 to 10 | > 10 |
| COc1ccccc1CCNC(=O)c1sccc1NC(=O)c1ccc(C(F)(F)C(=O)O)c(F)c1 [Example 27, 2,2-difluoro-2-(2-fluoro-4-((2-((2-methoxyphenethyl)carbamoyl)thiophen-3-yl)carbamoyl)phenyl)acetic acid] | > 10 | > 10 |

Other lines, results leading:

| IC50 [1] [µM] | IC50 [2] [µM] | SMILES |
| --- | --- | --- |
| ≤ 0.1 | ≤ 1 | CC(C)(C)CCNC(=O)c1sccc1NC(=O)c1cc(F)c(O)c(F)c1 [Example 18, 3-(3,5-difluoro-4-hydroxybenzamido)-N-(3,3-dimethylbutyl)thiophene-2-carboxamide] |
| ≤ 0.1 | ≤ 1 | COc1ccccc1CCNC(=O)c1sccc1NC(=O)c1ccc(O)c(Cl)c1 [Example 1, 3-(3-chloro-4-hydroxybenzamido)-N-(2-methoxyphenethyl)thiophene-2-carboxamide] |
| ≤ 0.1 | ≤ 1 | COc1ccccc1CCNC(=O)c1ccsc1NC(=O)c1ccc(O)c(Cl)c1 [Example 13, 2-(3-chloro-4-hydroxybenzamido)-N-(2-methoxyphenethyl)thiophene-3-carboxamide] |
| 0.1 to 1 | > 10 | CC(C)(C)CCNC(=O)c1sc2cnccc2c1NC(=O)c1ccc(O)c(F)c1 [Example 19, N-(3,3-dimethylbutyl)-3-(3-fluoro-4-hydroxybenzamido)thieno[2,3-c]pyridine-2-carboxamide] |
| 0.1 to 1 | ≤ 1 | COc1ccncc1CCNC(=O)c1sccc1NC(=O)c1ccc(O)c(Cl)c1 [Example 7, 3-(3-chloro-4-hydroxybenzamido)-N-(2-(4-methoxypyridin-3-yl)ethyl)thiophene-2-carboxamide] |
